Measured values from US10689391B2, “Isoxazole analogs as FXR agonists and methods of use thereof” (Enanta Pharmaceuticals, Inc., priority 2017, dated 2020).

Biological target: T1, human FXR (NR1H4) (Homo sapiens, UniProt Q96RI1)
T1 construct: host or cells: CHO (Chinese hamster ovary) reporter cells
T1 sequence (Q96RI1 1-486): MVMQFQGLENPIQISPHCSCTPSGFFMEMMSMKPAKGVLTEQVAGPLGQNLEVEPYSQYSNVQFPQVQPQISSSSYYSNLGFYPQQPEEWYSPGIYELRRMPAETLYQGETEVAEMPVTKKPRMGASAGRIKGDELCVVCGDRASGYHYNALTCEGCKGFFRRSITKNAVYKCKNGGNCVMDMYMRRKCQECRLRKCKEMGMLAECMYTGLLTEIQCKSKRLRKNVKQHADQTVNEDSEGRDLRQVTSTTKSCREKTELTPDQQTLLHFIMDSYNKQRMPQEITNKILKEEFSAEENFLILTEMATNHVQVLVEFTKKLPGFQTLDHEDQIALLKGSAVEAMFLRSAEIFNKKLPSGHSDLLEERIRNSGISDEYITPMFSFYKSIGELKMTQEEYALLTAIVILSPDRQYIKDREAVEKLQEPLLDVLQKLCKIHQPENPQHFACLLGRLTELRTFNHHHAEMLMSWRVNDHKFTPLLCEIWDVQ
Experiment: Human FXR (NR1H4) Assay (Gal4 promoter driven luciferase reporter, Indigo Bioscience kit IB00601); as to Efficacy (%): normalized to CDCA set as 100%
Format: cell-based
Conditions: for EC50: CHO reporter cells expressing human NR1H4, luciferase, 22 hours incubation, potency ranges; for Emax: read-out: Efficacy (%)
Excerpt: Human FXR (NR1H4) Assay Determination of a ligand mediated Gal4 promoter driven transactivation to quantify ligand binding mediated activation of FXR. FXR Reporter Assay kit purchased from Indigo Bioscience (Catalogue number: IB00601) to determine the potency and efficacy of compound developed by Enanta that can induce FXR activation. The principle application of this reporter assay system is to quantify functional activity of human FXR. The assay utilizes non-human mammalian cells, CHO (Chinese hamster ovary) cells engineered to express human NR1H4 protein (referred to as FXR). Reporter cells also incorporate the cDNA encoding beetle luciferase which catalyzes the substrates and yields photon emission. Luminescence intensity of the reaction is quantified using a plate-reading luminometer, Envision. Reporter Cells include the luciferase reporter gene functionally linked to an FXR responsive promoter. Thus, quantifying changes in luciferase expression in the treated reporter cells provides a sensitive surrogate measure of the changes in FXR activity. […] The assay is according to the manufacturer's instructions. […] Retrieve Reporter Cells from −80° C. storage. Perform a rapid thaw of the frozen cells by transferring a 10 ml volume of 37° C. cell recovery medium into the tube of frozen cells. Recap the tube of Reporter Cells and immediately place it in a 37° C. water bath for 5-10 minutes. Retrieve the tube of Reporter Cell Suspension from the water bath. Sanitize the outside surface of the tube with a 70% alcohol swab, and then transfer it into the cell culture hood. Dispense 90 μl of cell suspension into each well of the 96-well Assay Plate. Transfer the plate into 37° C. incubator, allowing the cells adherent to the bottom of the well. Dilute compounds in Dilution Plate (DP), and administrate to cells at Assay Plate (AP). DMSO content of the samples was kept at 0.2%. Cells were incubated for additional 22 hours before luciferase activities were measured. Thirty minutes before intending to quantify FXR activity, remove Detection Substrate and Detection Buffer from the refrigerator and place them in a low-light area so that they may equilibrate to room temperature. Remove the plate's lid and discard all media contents by ejecting it into an appropriate waste container. Gently tap the inverted plate onto a clean absorbent paper towel to remove residual droplets. Cells will remain tightly adhered to well bottoms. Add 100 μl of luciferase detection reagent to each well of the assay plate. Allow the assay plate to rest at room temperature for at least 5 minutes following the addition of LDR. Set the instrument (Envision) to perform a single 5 second “plate shake” prior to reading the first assay well. Read time may be 0.5 second (500 mSec) per well.

Row | EC50 | Emax | Compound
1 | 200 to 1000 nM | 33.5% | CC(C)Oc1cc(C(=O)NS(=O)(=O)C2CC2)cc2sc(O[C@@H]3CO[C@H]4[C@@H]3OC[C@@H]4OCc3c(-c4c(Cl)cccc4Cl)noc3C3CC3)nc12 [Example 3, 2-(((3R,3aR,6S,6aR)-6-((5-cyclopropyl-3-(2,6-dichlorophenyl)isoxazol-4-yl)methoxy)hexahydrofuro[3,2-b]furan-3-yl)oxy)-N-(cyclopropylsulfonyl)-4-isopropoxybenzo[d]thiazole-6-carboxamide]
2 | 200 to 1000 nM | 40% | O=C(O)c1ccc2nc(O[C@@H]3CO[C@H]4[C@@H]3OC[C@@H]4OCc3c(-c4c(Cl)cccc4Cl)noc3C3CC3)sc2c1 [Example 4, 2-(((3R,3aR,6S,6aR)-6-((5-cyclopropyl-3-(2,6-dichlorophenyl)isoxazol-4-yl)methoxy)hexahydrofuro[3,2-b]furan-3-yl)oxy)benzo[d]thiazole-6-carboxylic acid]
3 | 30 to 200 nM | 55% | O=C(O)c1cc(F)c2nc(O[C@@H]3CO[C@H]4[C@@H]3OC[C@H]4OCc3c(-c4c(Cl)cccc4Cl)noc3C3CC3)sc2c1 [Example 5, 2-(((3R,3aR,6R,6aR)-6-((5-cyclopropyl-3-(2,6-dichlorophenyl)isoxazol-4-yl)methoxy)hexahydrofuro[3,2-b]furan-3-yl)oxy)-4-fluorobenzo[d]thiazole-6-carboxylic acid]
4 | 30 to 200 nM | 56% | O=C(O)c1cc(F)c2nc(O[C@@H]3CO[C@H]4[C@@H]3OC[C@H]4OCc3c(-c4ccccc4OC(F)(F)F)noc3C3CC3)sc2c1 [Example 6]
5 | 200 to 1000 nM | 20% | CC1(S(=O)(=O)NC(=O)c2ccc3nc(O[C@@H]4CO[C@H]5[C@@H]4OC[C@H]5OCc4c(-c5c(Cl)cccc5Cl)noc4C4CC4)sc3c2)CC1 [Example 8, 2-(((3R,3aR,6R,6aR)-6-((5-cyclopropyl-3-(2,6-dichlorophenyl)isoxazol-4-yl)methoxy)hexa hydrofuro[3,2-b]furan-3-yl)oxy)-N-((1-methylcyclopropyl)sulfonyl)benzo-[d]thiazole-6-carboxamide]
6 | 200 to 1000 nM | 5.5% | O=C(NS(=O)(=O)C1CC1)c1ccc2nc(O[C@@H]3CO[C@H]4[C@@H]3OC[C@H]4OCc3c(-c4c(Cl)cccc4Cl)noc3C3CC3)sc2c1 [Example 9]
7 | < 30 nM | 103% | CC(C)Oc1cc(C(=O)NS(=O)(=O)N2CCCC2)cc2sc(O[C@@H]3CO[C@H]4[C@@H]3OC[C@H]4OCc3c(-c4c(Cl)cccc4Cl)noc3C3CC3)nc12 [Example 10]
8 | 30 to 200 nM | 57% | CC(C)Oc1cc(C(=O)NS(=O)(=O)C2CC2)cc2sc(O[C@@H]3CO[C@H]4[C@@H]3OC[C@H]4OCc3c(-c4c(Cl)cccc4Cl)noc3C3CC3)nc12 [Example 11]
9 | 30 to 200 nM | 70% | CC(C)Oc1cc(C(=O)NS(=O)(=O)C2(C)CC2)cc2sc(O[C@@H]3CO[C@H]4[C@@H]3OC[C@H]4OCc3c(-c4c(Cl)cccc4Cl)noc3C3CC3)nc12 [Example 12]
10 | < 30 nM | 96.5% | CC(C)Oc1cc(C(=O)NS(=O)(=O)N2CCCCC2)cc2sc(O[C@@H]3CO[C@H]4[C@@H]3OC[C@H]4OCc3c(-c4c(Cl)cccc4Cl)noc3C3CC3)nc12 [Example 13]
11 | 30 to 200 nM | 67.5% | O=C(O)c1ccc2nc(O[C@@H]3CO[C@H]4[C@@H]3OC[C@H]4OCc3c(-c4c(Cl)cccc4Cl)noc3C3CC3)sc2c1 [Example 14]
12 | 30 to 200 nM | 85% | O=C(O)c1ccc2nc(O[C@@H]3CO[C@H]4[C@@H]3OC[C@H]4OCc3c(-c4c(Cl)cccc4Cl)noc3C3CC3)ccc2c1 [Example 16]
13 | > 1000 nM | 9% | CC(C)Oc1cc(C(=O)O)cc2sc([C@@]3(O)CO[C@@H]4[C@H](OCc5c(-c6c(Cl)cccc6Cl)noc5C5CC5)CO[C@@H]43)nc12 [Example 17]
14 | 200 to 1000 nM | 45% | CC(C)Oc1cc(C(=O)O)cc2sc([C@]3(F)CO[C@@H]4[C@H](OCc5c(-c6c(Cl)cccc6Cl)noc5C5CC5)CO[C@@H]43)nc12 [Example 18]
15 | 200 to 1000 nM | 82.3% | CC(C)Oc1cc(C(=O)O)cc2sc(N[C@@H]3CO[C@H]4[C@@H]3OC[C@H]4OCc3c(-c4c(Cl)cccc4Cl)noc3C3CC3)nc12 [Example 19]
16 | 200 to 1000 nM | 44% | CC(C)Oc1cc(C(=O)O)cc2sc(N3CCN4C[C@@H](OCc5c(-c6c(Cl)cccc6Cl)noc5C5CC5)C[C@@H]4C3)nc12 [Example 20, 2-((7S,8aR)-7-((5-cyclopropyl-3-(2,6-dichlorophenyl)isoxazol-4-yl)methoxy)hexahydropyrrolo[1,2-a]pyrazin-2(1H)-yl)-4-isopropoxybenzo[d]thiazole-6-carboxylic acid]
17 | 30 to 200 nM | 72% | CC(C)Oc1cc(C(=O)O)cc2sc(N3CCN4C[C@H](OCc5c(-c6c(Cl)cccc6Cl)noc5C5CC5)C[C@H]4C3)nc12 [Example 21]
18 | 30 to 200 nM | 82% | CC(C)Oc1cc(C(=O)O)cc2sc(N3CCN4C[C@H](OCc5c(-c6c(Cl)cccc6Cl)noc5C5CC5)C[C@@H]4C3)nc12 [Example 22, 2-((7R,8aR)-7-((5-cyclopropyl-3-(2,6-dichlorophenyl)isoxazol-4-yl)methoxy)hexahydropyrrolo[1,2-a]pyrazin-2(1H)-yl)-4-isopropoxybenzo[d]thiazole-6-carboxylic acid]
19 | < 30 nM | 103% | CC(C)Oc1cc(C(=O)O)cc2sc(O[C@@H]3CO[C@H]4[C@@H]3OC[C@H]4OCc3c(-c4ccccc4OC(F)(F)F)noc3C3CC3)nc12 [Example 23]
20 | 30 to 200 nM | 78% | CC(C)Oc1cc(C(=O)NS(=O)(=O)C2(C)CC2)cc2sc(O[C@@H]3CO[C@H]4[C@@H]3OC[C@H]4OCc3c(-c4ccccc4OC(F)(F)F)noc3C3CC3)nc12 [Example 24]
21 | 30 to 200 nM | 66% | CC(C)Oc1cc(C(=O)NS(=O)(=O)C2CC2)cc2sc(O[C@@H]3CO[C@H]4[C@@H]3OC[C@H]4OCc3c(-c4ccccc4OC(F)(F)F)noc3C3CC3)nc12 [Example 25]
22 | 200 to 1000 nM | 7% | CC(C)Oc1cc(C(=O)O)cc2sc(N3C[C@H]4[C@@H](OCc5c(-c6c(Cl)cccc6Cl)noc5C5CC5)CO[C@H]4C3)nc12 [Example 26]
23 | 200 to 1000 nM | 57% | CC(C)Oc1cc(C(=O)O)cc2sc(N3C[C@H]4C[C@@H](NCc5c(-c6c(Cl)cccc6Cl)noc5C5CC5)C[C@H]4C3)nc12 [Example 28]
24 | > 1000 nM | 21% | CC(C)Oc1cc(C(=O)O)cc2sc(N3CCN4C(=O)[C@@H](OCc5c(-c6c(Cl)cccc6Cl)noc5C5CC5)C[C@@H]4C3)nc12 [Example 29]
25 | 30 to 200 nM | 70% | CC(C)Oc1cc(C(=O)O)cc2sc(N3CCN4C(=O)[C@H](OCc5c(-c6c(Cl)cccc6Cl)noc5C5CC5)C[C@H]4C3)nc12 [Example 30]
26 | 30 to 200 nM | 110% | CC(C)Oc1cc(C(=O)O)cc2sc(N3CCN4C(=O)[C@@H](OCc5c(-c6c(Cl)cccc6Cl)noc5C5CC5)C[C@H]4C3)nc12 [Example 31]
